Tested on: ascitic form of a transplantable mouse liver tumor (TLT)
Assay: Survival (increase of life span) of mice bearing the intraperitoneally transplanted ascitic TLT tumor
Assay type: in vivo, NMRI male mice
Conditions: for therapeutic effect (character of chemotherapy potentiating effect): cytotoxic drug combined with dietary FOS or inulin
Source text: Viable, neoplastic cells (10^6) from the ascitic form of a transplantable mouse liver tumor (TLT) (Taper, 1966 and Cappucino, 1966) were intraperitoneally transplanted into 12 per group young adult NMRI male mice weighing about 30 g, supplied by "Animalerie Facultaire", UCL, Brussels. Mice of the experimental groups were fed with a basal diet supplemented with 15 % FOS or inulin starting 7 days before tumor transplantation up to the end of the experiment. Control animals received the basal diet for experimental animals AO4 furnished by UAR, Villemoisson sur Orge, France, and water ad libitum.
A single, subtherapeutic dose of cytotoxic drugs was intraperitoneally injected 48 hours after intraperitoneal TLT tumor transplantation at following doses: endoxan 80 mg/kg; adriamycin 0.1 mg/kg; oncovin 0.5 mg/kg and 5-fluorouracil 40 mg/kg.
The criteria for the evaluation of results were the mortality rates expressed by mean survival time (MST) and the percentage of increase of life span (ILS) in experimental groups compared with the controls, calculated according to the NCI instructions (Geron et al., 1972). The results of each experiment were confirmed by another experiment performed at another time and were cumulatively calculated (as presented in Table 1). The results concerning the survival rates of mice bearing the ascitic form of a TLT tumor, observed in 2 separately performed experiments on each type of anti-cancer drug (12 mice per group), are cumulatively presented in Table 1 below.
In a further experiment, carried out in a similar manner as the previous experiment, the effects were examined of a composition according to the invention, containing a combination of the anti-metabolite anti-cancer drug methotrexate and inulin or FOS, in comparison with the effects of the single components. The effects were evaluated via the survival criteria of N.M.RI mice bearing ascitic TLT tumors, treated with a single i.p. dose of 20 mg/kg methotrexate (10 investigated mice in each group) and the results are presented in Table 2 below.

[1] = increase of life span vs own untreated control group, 15 % FOS or inulin in diet from 7 days before transplantation, single i.p. dose 48 hours after transplantation: endoxan 80 mg/kg, adriamycin 0.1 mg/kg, oncovin 0.5 mg/kg, 5-fluorouracil 40 mg/kg, 2 experiments cumulated

Structure (SMILES)	therapeutic effect (character of chemotherapy potentiating effect)	ILS (%) [1]	ILS (%) (Table 2, methotrexate single i.p. dose of 20 mg/kg, dietary FOS or inulin, 10 mice in each group)
O=P1(N(CCCl)CCCl)NCCCO1 (stereo not drawn) [Endoxan, cyclophosphamide]	additive	0%	
CC[C@]1(O)C[C@H]2CN(CCc3c([nH]c4ccccc34)[C@@](C(=O)OC)(c3cc4c(cc3OC)N(C=O)[C@H]3[C@@](O)(C(=O)OC)[C@H](OC(C)=O)[C@]5(CC)C=CCN6CC[C@]43[C@@H]65)C2)C1 [Oncovin, vincristine sulphate]	additive	33.33%	
COc1cccc2c1C(=O)c1c(O)c3c(c(O)c1C2=O)C[C@@](O)(C(=O)CO)C[C@@H]3O[C@H]1C[C@H](N)[C@H](O)[C@H](C)O1 [Adriamycin, adriamycin]	additive	14.7%	
O=c1[nH]cc(F)c(=O)[nH]1 [5-Fluorouracil, 5-fluorouracil]	synergistic	18.75%	
CN(Cc1cnc2nc(N)nc(N)c2n1)c1ccc(C(=O)N[C@@H](CCC(=O)O)C(=O)O)cc1 [methotrexate]			2%

Source: patent publication EP1079840B1, “SYNERGISTIC COMPOSITION OF INULIN AND AN ANTI-CANCER DRUG FOR USE IN THE TREATMENT OF CANCER” (Tiense Suikerraffinaderij N.V. (Raffinerie Tirlemontoise …, priority 1998, dated 1999)
